This note sets out measurements from patent US9079870B2, “Thiol mediated/activated prodrugs of sulfur dioxide (SO2) having anti-bacterial activity” (priority 2012, dated 2015).

The test system of data set [1] is Mycobacterium tuberculosis H37Rv strain. Description: Antimycobacterial activity assay (MIC, 7H11 agar). Type of data set: cell-based. The settings on record: for inhibition of growth of Mtb at 100 μg mL-1: tested at 100 μg mL-1.
Data set [2] can be described thus: Pararosaniline-based colorimetric assay for sulfur dioxide. Type of data set: physicochemical. The settings on record: detected with pararosaniline-based colorimetric assay; 10 equiv cysteine, pH 7.4.
A further data set relates to E. feacalis ATCC 29212. Briefly: Antibacterial activity (MIC) against E. feacalis. Type of data set: cell-based. The text has this:
(§1) The antibacterial activity of thiol mediated/activated prodrugs of SO2 i.e. 2,4-dinitrophenylsulfonamide related compounds against the gram positive pathogenic bacteria selected from the group S. aureus, E. feacalis is given herein below Table 2a.

A further data set has as its system S. aureus ATCC 29213. Briefly: Antibacterial activity (MIC) against S. aureus. Type of data set: cell-based.
Source text: as §1

Data set [3] can be described thus: Cysteine-activated sulfur dioxide release, ion chromatography analysis of sulfite. The settings on record: for SO2 yield, 5 min: 5 min after treatment of compound (100 1M) with 10 equiv of cysteine in pH 7.4 phosphate buffer; for % SO2 (30 min): 30 min after commencement of the reaction with thiol, per mole of compound.
Where [4] appears, read: Mycobacterium tuberculosis, Table 3, Mtb H37Rv, read-out: MIC.
Setting [5] is: Mycobacterium tuberculosis, H37RV, Table 3, Mtb H37Rv.
Setting [6] is: Mycobacterium tuberculosis, H37RV, Table 3, inhibit 99% of bacterial growth, Mtb H37Rv.
Setting [7] is: Enterococcus faecalis, ATCC29212; read-out: MIC (μg/mL) E. feacalis ATCC 29212.
[8] abbreviates: Staphylococcus aureus, ATCC29213; read-out: MIC (μg/mL) S. aureus ATCC 29213.
The mark [9] stands for this setting: 30 min after treatment of compound (100 1M) with 10 equiv of cysteine in pH 7.4 phosphate buffer.
The mark [10] stands for this setting: Mycobacterium tuberculosis, H37RV, Table 2b, Mtb H37Rv.
[11] abbreviates: Mycobacterium tuberculosis, H37RV, Table 2b, inhibit 99% of bacterial growth, Mtb H37Rv.
The mark [12] stands for this setting: Table 2b, Mtb H37Rv, read-out: MIC.
Where [13] appears, read: Table 3, 30 min after treatment of compound (100 μM) with 10 equiv of cysteine in pH 7.4 phosphate buffer.
Setting [14] is: Mycobacterium tuberculosis, H37RV, 672 h, Table 3, inhibit 99% of bacterial growth, Mtb H37Rv, read-out: MIC.
Where [15] appears, read: Enterococcus faecalis, ATCC29212, read-out: MIC (μg/mL) E. feacalis ATCC 29212.
The mark [16] stands for this setting: Staphylococcus aureus, ATCC29213, read-out: MIC (μg/mL) S. aureus ATCC 29213.

In brackets after ≈: the same amount, converted by molar mass. Like-named read-outs stand apart in the source and are kept apart here.

`NCc1ccccc1` [BnNH2, Benzylamine, reference compound]: the MIC is greater than 250 µM in data set [1] (setting [4]) and greater than 100 µg/mL in data set [1] (Mycobacterium tuberculosis, Table 3, inhibit 99% of bacterial growth, Mtb H37Rv, read-out: MIC). In data set [1], the “inhibition of growth of Mtb at 100 μg mL-1” value is reported as “did not show a significant inhibition of growth of Mtb”. Also, in data set [2], the SO2 source result is on record as “no”.
Regarding `CNCc1ccccc1` [BnNHMe, N-methylbenzylamine, reference compound], the MIC in data set [1] (setting [5]) is greater than 250 µM; in data set [1] (setting [6]), greater than 100 µg/mL. Besides, in data set [1], the “inhibition of growth of Mtb at 100 μg mL-1” value is on record as “a similar observation”. Further, in data set [2], the SO2 source entry is listed as “no”.
Regarding `COc1ccc(CNS(=O)(=O)c2ccc([N+](=O)[O-])cc2[N+](=O)[O-])cc1` [Compound 2, N-(4-methoxybenzyl)2,4-dinitrophenylsulfonamide], the MIC with E. feacalis ATCC 29212 (setting [7]) was greater than 16 µg/mL; in the data set with S. aureus ATCC 29213 (setting [8]), greater than 16 µg/mL; in data set [1] (setting [10]), 0.68 µM; in data set [1] (setting [11]) it was 0.25 µg/mL. Moreover, the “SO2 yield, 5 min” value in data set [3] was 74 µM. Besides, in data set [3] (setting [9]), the “SO2 yield, 30 min” value is 84 µM.
Consider `COc1ccccc1NS(=O)(=O)c1ccc([N+](=O)[O-])cc1[N+](=O)[O-]` [Compound 8, N-(2-methoxyphenyl) 2,4-dinitrophenylsulfonamide], for which the MIC with E. feacalis ATCC 29212 (setting [7]) was 16 µg/mL (≈ 45.3 µM); in the data set with S. aureus ATCC 29213 (setting [8]) it was 8 µg/mL (≈ 22.6 µM); in data set [1] (setting [10]) it was 8.85 µM; in data set [1] (setting [11]) it was 3.13 µg/mL. In data set [3], the “SO2 yield, 5 min” value turned out to be 57 µM. In data set [3] (setting [9]), the “SO2 yield, 30 min” value stood at 86 µM.
On to `O=[N+]([O-])c1ccc(S(=O)(=O)Nc2ccc(F)cc2)c([N+](=O)[O-])c1` [Compound 10, N-(4-fluorophenyl) 2,4-dinitrophenylsulfonamide], for which the MIC in the data set with E. feacalis ATCC 29212 (setting [7]) was greater than 16 µg/mL; in the data set with S. aureus ATCC 29213 (setting [8]), 16 µg/mL (≈ 46.9 µM); in data set [1] (setting [10]) it was 18.3 µM; in data set [1] (setting [11]), 6.25 µg/mL. Besides, the “SO2 yield, 5 min” value in data set [3] was 18 µM. Further, the “SO2 yield, 30 min” value in data set [3] (setting [9]) stood at 55 µM.
In the case of `N#Cc1ccc(NS(=O)(=O)c2ccc([N+](=O)[O-])cc2[N+](=O)[O-])cc1` [Compound 11, N-(4-cyanophenyl) 2,4-dinitrophenylsulfonamide], the MIC was greater than 16 µg/mL in the data set on E. feacalis ATCC 29212 (setting [7]), greater than 16 µg/mL in the data set on S. aureus ATCC 29213 (setting [8]), greater than 100 µM in data set [1] (setting [10]) and greater than 50 µg/mL in data set [1] (setting [11]). Moreover, the “SO2 yield, 5 min” value in data set [3] worked out at 6 µM. In data set [3] (30 min after commencement of the reaction with cysteine (10 equiv), pH 7.4), the “SO2 yield in 30 min (%)” value is 5%. In data set [3] (setting [9]), the “SO2 yield, 30 min” value was 5 µM.
In the case of `O=[N+]([O-])c1ccc(S(=O)(=O)N(Cc2ccccc2)c2ccccc2)c([N+](=O)[O-])c1` [Compound 17, (N-benzyl, N-phenyl) 2,4-dinitrophenylsulfonamide], the “SO2 yield, 5 min” value in data set [3] was found to be 44 µM. For the same compound, the “SO2 yield, 30 min” value in data set [3] (setting [9]) amounted to 94 µM. Besides, the MIC in data set [1] (setting [12]) stood at 4.44 µM; in data set [1] (Table 2b, inhibit 99% of bacterial growth, Mtb H37Rv), 1.56 µg/mL.
Regarding `CN(c1ccccc1)S(=O)(=O)c1ccc([N+](=O)[O-])cc1[N+](=O)[O-]` [Compound 18, (N-methyl, N-phenyl) 2,4-dinitrophenylsulfonamide], the “SO2 yield, 5 min” value in data set [3] was determined as 89 µM. In data set [3] (setting [9]), the “SO2 yield, 30 min” value was determined as 94 µM. The “MIC” value in data set [1] amounted to 0.78 µg/mL; in data set [1] (setting [12]), 2.31 µM.
As for `CN(CCc1ccccc1)S(=O)(=O)c1ccc([N+](=O)[O-])cc1[N+](=O)[O-]` [Compound 19, N-methyl, N-(2-phenylethyl) 2,4-dinitrophenylsulfonamide], the “SO2 yield, 5 min” value in data set [3] worked out at 79 µM. Moreover, the “SO2 yield, 30 min” value in data set [3] (setting [9]) came out at 84 µM. Also, the “MIC” value in data set [1] was 0.78 µg/mL; in data set [1] (setting [12]), 2.13 µM.
The corresponding values for `O=[N+]([O-])c1ccc(S(=O)(=O)N(CCc2ccccc2)Cc2ccccc2)c([N+](=O)[O-])c1` [Compound 20, N-benzyl, N-(2-phenylethyl) 2,4-dinitrophenylsulfonamide] are 37 µM, 75 µM, 3.13 µg/mL and 7.09 µM.
Regarding `COC(=O)C(C)NS(=O)(=O)c1ccc([N+](=O)[O-])cc1[N+](=O)[O-]` (stereo not shown) [Compound 21, Methyl 2-{[(2,4-dinitrophenyl)sulfonyl]amino}propanoate], in data set [3] (setting [13]), the “SO2 yield, 30 min” value came to 93 µM. Further, the MIC in data set [1] (setting [14]) is no more than 25 µg/mL; in data set [1] (setting [5]), 18.7 µM; in data set [1] (setting [6]), 6.25 µg/mL. Also, the SO2 source result in data set [2] is given as “yes”.
With `COC(=O)C1CCCN1S(=O)(=O)c1ccc([N+](=O)[O-])cc1[N+](=O)[O-]` (stereo not shown) [Compound 22, Methyl 1[(2,4-dinitrophenyl)sulfonyl]pyrrolidine-2-carboxylate], the “SO2 yield, 30 min” value in data set [3] (setting [13]) was 83 µM. Further, the MIC was no more than 25 µg/mL in data set [1] (setting [14]), 35 µM in data set [1] (setting [5]) and 12.5 µg/mL in data set [1] (setting [6]). Moreover, the SO2 source entry in data set [2] is “yes”.
The like results for `CN1CCN(S(=O)(=O)c2ccc([N+](=O)[O-])cc2[N+](=O)[O-])CC1` [Compound 25, 1-[(2,4-dinitrophenyl)sulfonyl]-4-methylpiperazine] were, in that order, 88 µM, no more than 25 µg/mL, 38 µM, 12.5 µg/mL and “yes”.
On to `C=CCN(CC=C)S(=O)(=O)c1ccc([N+](=O)[O-])cc1[N+](=O)[O-]` [Compound 32, N,N-diallyl-2,4-dinitrobenzenesulfonamide], for which the MIC in the data set on E. feacalis ATCC 29212 (setting [15]) is greater than 16 µg/mL; with S. aureus ATCC 29213 (setting [16]) it was 8 µg/mL (≈ 24.4 µM).
Turning to `C#CCN(Cc1ccccc1)S(=O)(=O)c1ccc([N+](=O)[O-])cc1[N+](=O)[O-]` [Compound 33, N-benzyl-2,4-dinitro-N-prop-2-yn-1-ylbenzenesulfonamide], the values for the MIC in the data set with E. feacalis ATCC 29212 (setting [15]) and with S. aureus ATCC 29213 (setting [16]) were 8 µg/mL (≈ 21.3 µM) and 4 µg/mL (≈ 10.7 µM), respectively.
The compound `O=[N+]([O-])c1ccc(S(=O)(=O)N(CCCN(Cc2ccccc2)S(=O)(=O)c2ccc([N+](=O)[O-])cc2[N+](=O)[O-])Cc2ccccc2)c([N+](=O)[O-])c1` [Compound 34, N,N′-(propane-1,3-diyl)bis(N-benzyl-2,4-dinitrobenzenesulfonamide)] registered a melting point of 186 to 189 °C. Further, in data set [3], the “% SO2 (30 min)” value came to 152%.
On to `COc1cccc(N(CCCN(Cc2ccccc2)S(=O)(=O)c2ccc([N+](=O)[O-])cc2[N+](=O)[O-])S(=O)(=O)c2ccc([N+](=O)[O-])cc2[N+](=O)[O-])c1` [Compound 36, N-benzyl-N-(3-(N-(3-methoxyphenyl)-2,4-dinitrophenylsulfonamido)propyl)-2,4-dinitrobenzenesulfonamide], for which the melting point lay within 108 to 110 °C. The “% SO2 (30 min)” value in data set [3] worked out at 184%.
In turn, `COc1ccc(N(CCCN(Cc2ccccc2)S(=O)(=O)c2ccc([N+](=O)[O-])cc2[N+](=O)[O-])S(=O)(=O)c2ccc([N+](=O)[O-])cc2[N+](=O)[O-])cc1` [Compound 37, N-benzyl-N-(3-(N-(4-methoxyphenyl)-2,4-dinitrophenylsulfonamido)propyl)-2,4-dinitrobenzenesulfonamide] returned a melting point of 118 to 120 °C. Moreover, the “% SO2 (30 min)” value in data set [3] was 183%.
As to `NNC(=O)c1ccncc1` [Isoniazide, reference compound], the MIC was determined as 0.05 µg/mL in data set [1] (Mycobacterium tuberculosis, Table 2b, inhibit 99% of bacterial growth, Mtb H37Rv, read-out: MIC); 0.37 µM in data set [1] (setting [4]); 0.37 µM in data set [1] (setting [12]); 0.05 µg/mL in data set [1] (Table 3, inhibit 99% of bacterial growth, Mtb H37Rv). Further, in data set [2], the SO2 source result is given as “no”.
